Laboratory results published in patent US10196395B2, “Crystalline form alpha of IPI-145 and preparation method thereof” (CRYSTAL PHARMATECH CO., LTD., priority 2015, dated 2019).
“Also recorded” adds a separate entry of the source.

How the values were obtained:
[1] = Stability assessment: 1:1 mixture of Form α and anhydrous Form A stirred in tetrahydrofuran, solid tested by XRPD; format: physicochemical; conditions: 25° C. and 50° C.
Method: Form α of the present disclosure and anhydrous Form A in CN103648499A were mixed with a mass ratio of 1:1 and stirred in tetrahydrofuran at 5° C., 25° C. and 50° C. at a rate of 500 r/min for 24 h.

[2] = Hygroscopicity assessment by dynamic vapor sorption (DVS); format: physicochemical; conditions: 25° C.; for Weight gain under 80% RH: DVS, 10 mg
Method: Dynamic Vapor Sorption (DVS) was measured via Dynamic Vapor Sorption Intrinsic manufacture by SMS's (Surface Measurement Systems Ltd.). Typical Parameters for DVS test were listed below.
Gas and flow rate: N2, 200 mL/min
RH range: 0% RH to 95% RH
Hygroscopicity of 10 mg Form α of the present invention was tested using dynamic vapor sorption (DVS).
About hygroscopicity characterization description and definition of hygroscopicity (Chinese Pharmacopoeia 2010 edition appendix XIXJ Drug hygroscopic test guidelines, test at 25° C.±1, 80% Relative Humidity) • deliquescent: sufficient water is absorbed to form a liquid; • very hygroscopic: increase in mass is equal to or greater than 15 percent; • hygroscopic: increase in mass is less than 15 percent and equal to or greater than 2 percent; • slightly hygroscopic: increase in mass is less than 2 percent and equal to or greater than 0.2 percent; • no or almost no hygroscopic: increase in mass is less than 0.2%.

[3] = cited from earlier work

Structure (SMILES): C[C@H](Nc1ncnc2[nH]cnc12)c1cc2cccc(Cl)c2c(=O)n1-c1ccccc1 [Form α, (S)-3-(1-(9H-purin-6-ylamino)ethyl)-8-chloro-2-phenylisoquinolin-1(2H)-one]
- Stability relative to anhydrous Form A in CN103648499A ([1]; conclusion from stirring the mixture at 5° C.): more thermodynamic stable than Form A in CN103648499A; also recorded: more stable than anhydrous Form A in CN103648499A
- Hygroscopicity according to hygroscopic test guidelines ([2]; Chinese Pharmacopoeia 2010 definition, 80% Relative Humidity): slightly hygroscopic (increase in mass is less than 2 percent and equal to or greater than 0.2 percent)
- Weight gain under 80% RH ([2]; listed as Crystalline Form α of compound of Formula (I)): 0.67%
- Weight gain under 80% RH ([2]; listed as crystalline Form α): 0.67%

Structure (SMILES): C[C@H](Nc1ncnc2[nH]cnc12)c1cc2cccc(Cl)c2c(=O)n1-c1ccccc1 [Form A, (S)-3-(1-(9H-purin-6-ylamino)ethyl)-8-chloro-2-phenylisoquinolin-1(2H)-one]
- Form conversion on stirring ([1]; at 5° C., tetrahydrofuran, 24 h): converted to Form α

Structure (SMILES): C[C@H](Nc1ncnc2[nH]cnc12)c1cc2cccc(Cl)c2c(=O)n1-c1ccccc1 [Form C, (S)-3-(1-(9H-purin-6-ylamino)ethyl)-8-chloro-2-phenylisoquinolin-1(2H)-one]
- Crystallinity after grinding [3]: decrease or turns into amorphous
